Key:
alpha human thrombin [1] = target: T1, alpha human thrombin (Homo sapiens, UniProt P00734); experiment: Determination of the thrombin time (concentration doubling the thrombin time) in standard human plasma; assay type: biochemical; details: pH 7.6, 37° C., alpha human thrombin 3.0 IU/ml
T1 construct: alpha human thrombin
Method: The activity of the substances prepared as in Examples 1, 2 or 3 was ascertained by determination of the thrombin time. This entailed the concentration (in μmol/l) which doubled the thrombin time being ascertained.
50 μl of inhibitor solution of various concentrations, 50 μl of standard human plasma and 100 μl of diethylbarbituric acid/sodium acetate buffer, pH 7.6, were incubated at 37° C. for 45 seconds and 100 μl of alpha human thrombin (3.0 IU/ml) were added. The tests were carried out on a Schnitger & Gross apparatus for determination of the thrombin time.

mice = details: mouse, in vivo, iv
Method: The toxicity of H-D-Phe-Pro-Arg-CN × 2HCOOH […] in an animal model. The test substance was administered i.v. to mice. Clinically detectable pathological findings were found at and above a dose of 50 mg/kg. The dose for a therapeutic effect ought to be about 1-4 mg/kg.

alpha human thrombin [2] = target: T1, alpha human thrombin; experiment: Inhibition constant (Ki) against alpha human thrombin; assay type: biochemical

Structure (SMILES)	Doubling of the thrombin time at concentration (final conc.) (alpha human thrombin [1]) [µmol/L]	Dose at and above which clinically detectable pathological findings were found (mice) [mg/kg]	Ki (alpha human thrombin [2]) [nM]
CC(C)(C)OC(=O)N[C@H](Cc1ccccc1)C(=O)N1CCC[C@H]1C(=O)NC(C#N)CCCNC(=N)N (stereo partly drawn) [Example 1, N(alpha)-Boc-D-Phenylalanyl-L-prolyl-L-(1-amino-4-guanidino)valeronitrile]	3.66	–	–
N#CC(CCCNC(=N)N)NC(=O)[C@@H]1CCCN1C(=O)[C@@H](Cc1ccccc1)NC(=O)OCC1c2ccccc2-c2ccccc21 (stereo partly drawn) [Example 2, N(alpha)-Fmoc-D-Phenylalanyl-L-prolyl-L-(1-amino-4-guanidino)valeronitrile]	3.66	–	–
N#CC(CCCNC(=N)N)NC(=O)[C@@H]1CCCN1C(=O)[C@H](N)Cc1ccccc1.O=C(O)C(F)(F)F.O=C(O)C(F)(F)F (stereo partly drawn) [Example 3, H-D-Phenylalanyl-L-prolyl-L-(1-amino-4-guanidino)valeronitrile ditrifluoroacetate]	1.1	–	–
N#C[C@H](CCCNC(=N)N)NC(=O)[C@@H]1CCCN1C(=O)[C@H](N)Cc1ccccc1.O=CO.O=CO [H-D-Phe-Pro-Arg-CN × 2HCOOH]	–	≥ 50	600

Source: patent US4927809A, “Oligopeptidyl nitrile derivatives, agents containing them and their use” (Behringwerke Aktiengesellschaft, priority 1986, dated 1990)
